Test results: US20130274247A1 (priority 2012, published 2013)
Like-named read-outs stand apart in the source and are kept apart here.

Tests used:
in vivo = experiment: in vivo; design: species or system cat; details: for AUC(0-inf) / CL/F / Cmax / Tmax / Vd/F: both sexes
Source text: In this prospective pharmacokinetic study, 6 client-owned stable CKD cats, 2 each from International Renal Interest Society (IRIS) stages II, III and IV, […] and 6 age-matched (within 6 months) healthy geriatric control cats (AMC) were enrolled by stratified convenience sampling. There were 4 spayed females and 2 neutered males in the CKD group and 3 spayed females and 3 neutered males in the AMC group. […] Diagnostic tests required before enrollment included a minimum database consisting of serum biochemistry profile, CBC, urinalysis, urine culture, blood pressure, and serum total thyroxine concentration. […] Exclusion criteria included other systemic illnesses, complications of CKD such as hypertension, pyelonephritis or ureteral obstruction, or decompensation of CKD requiring hospitalization and IV fluid therapy. The project was approved by the Institutional Animal Care and Use Committee at Colorado State University, and all owners gave written informed consent before participation. […] Samples were centrifuged within 10 minutes of collection and serum was harvested and stored at —80° C. until analysis. […] Pharmacokinetic analysis was performed using a non-compartmental method. Area under the curve to infinity (AUC∞), disappearance half-life (t½^λ), time to maximum serum concentration (Tmax), and maximum serum concentration (Cmax) were calculated. […] The terminal elimination rate was used for estimating the accumulation factor as the applicable kel, and the dosing interval (T) was set at 24 or 48 hours. Comparison of pharmacokinetic parameters between the CKD and AMC cat groups was performed using a Mann-Whitney U-test. Prism software© was used for all analyses.

cats = details: cited from earlier work
young normal cats = details: cited from earlier work
[1] = humans; cited from earlier work
CKD cats = experiment: Effect of mirtazapine on weight, appetite, activity and vomiting in CKD cats; format: in vivo, cat; details: 1.88 mg every other day for three weeks
Source text: FIG. 1. […] FIG. 2. […] FIG. 3. […] FIG. 4.

[2] = cited from earlier work
[3] = Stability of compounded 1.88 mg mirtazapine capsules (LC/MS/MS); format: physicochemical; details: compounded 1.88 mg capsules
Source text: The method used is guaranteed to produce accurate compounding to within 10% of the target dose.

SMILES: CN1CCN2c3ncccc3Cc3ccccc3C2C1 (stereo not shown) [mirtazapine]
- difference in AUC∞ between AMC cats and CKD cats (in vivo): statistically significant difference
- AUC(0-inf) (in vivo; po, 1.88 mg, Mean ± SD): 590 ± 185 ng·h/mL
- AUC(0-inf) (in vivo; po, 1.88 mg, Median): 561 ng·h/mL
- CL/F (in vivo; po, 1.88 mg, Mean ± SD): 13.2 mL/min/kg
- CL/F (in vivo; po, 1.88 mg, Median): 12.2 mL/min/kg
- Cmax (in vivo; po, 1.88 mg, Mean ± SD): 79.6 ± 21.7 ng/mL
- Cmax (in vivo; po, 1.88 mg, Median): 83.6 ng/mL
- Tmax (in vivo; po, 1.88 mg, Mean ± SD): 2 ± 1.5 h
- Tmax (in vivo; po, 1.88 mg, Median): 1 h
- Vd/F (in vivo; po, 1.88 mg, Mean ± SD): 13.9 ± 3.2 L
- Vd/F (in vivo; po, 1.88 mg, Median): 14.4 L
- CL/F, Mean ± SD (in vivo; both, po, 1.88 mg): 10.2 mL/min/kg
- CL/F, Median (in vivo; both, po, 1.88 mg): 10 mL/min/kg
- Cmax, Mean ± SD (in vivo; both, po, 1.88 mg): 110.6 ± 30.8 ng/mL
- Cmax, Median (in vivo; both, po, 1.88 mg): 109.5 ng/mL
- AUC∞, Mean ± SD (in vivo; po, 1.88 mg): 866.5 ± 257.9 ng·h/mL
- AUC∞, Median (in vivo; po, 1.88 mg): 828.4 ng·h/mL
- Vd/F, Mean ± SD (in vivo; po, 1.88 mg): 13.6 ± 2.0 L
- Vd/F, Median (in vivo; po, 1.88 mg): 13.4 L
- other reported adverse effects (hyperexcitability, muscle tremors) (cats): mild and dose dependent
- food consumption as compared to placebo (young normal cats; 1.88 mg/cat): increased food consumption
- food consumption as compared to placebo (young normal cats; 3.75 mg/cat): increased food consumption
- appetite stimulation (young normal cats; dose of 1.88 mg): significantly stimulates appetite
- AUC in young men compared to women [1]: lower
- Effect on weight (CKD cats; p=0.002): statistically significant increase
- Effect on activity (CKD cats; p=0.02): statistically significant increase
- Effect on appetite score (CKD cats; p=0.02): statistically significant increase
- Effect on vomiting (CKD cats; p=0.047): statistically significant decrease
- mean AUC ([2]; normal cats, previously reported): 397 ng/mL/h
- mean CL/F ([2]; young healthy cats): 18.3 mL/min/kg
- stability as formulated [3]: at least 6 months
